Tests used:
[1] = tested on: Pancreas (Mia-PaCa); assay: Pancreas (Mia-PaCa) model, tumor weight; format: in vivo, mice; conditions: 80 mg/kg i.p. on days 1,4,7 and 10; c1 = day 40
Method: The dose response effect of carbendazim in mice infected with various cancer types was studied in standard screening tests.
The results of these studies conducted to study the dosage response of carbendazim on various cancer types are summarized below. […] Efficacy of carbendazim has been shown in the following cancers:
In the Pancreas (Mia-PaCa) model, carbendazim at 3000 and 4000 (mg/kg, twice weekly) is as good as or better than gemcitabine. At 2000 mg/kg the carbendazim was not as effective after 21 days. Gemcitabine was given on days 1,4,7 and 10 i.p.; the carbendazim was given p.o. twice weekly.

[2] = tested on: MCF-7L breast line; assay: MCF-7L breast line study versus Navelbine and Taxol, tumor weight; format: in vivo, mice; conditions: 16 mg/kg qd×5 i.p., carbendazim treatment begun on day 130; c1-c4 = day 236, 239, 245, 249
[3] = format: in vivo; conditions: SK-MES, positive control 20 mg/kg, 5 doses
From the text: Additional in vivo cancer studies are presented in a tabular form below. The data is presented in the following format—dose regimen in parenthesis, dosage in mg/kg: tumor growth suppression (tg supp.), toxic deaths/number of test subjects (deaths), % weight change (wt).

[4] = tested on: HIV, pretreated chronically infected cells; format: cell-based; conditions: irrespective of the culture conditions
[5] = tested on: HIV, chronically infected cells; assay: Virus Resistance Studies; format: cell-based; conditions: cultures treated at 40 and 80 μg/ml
[6] = tested on: influenza; assay: In vitro influenza model; format: cell-based
[7] = tested on: breast tumor cells (MCF-7); assay: Related study of tumor cell killing (optical density); format: cell-based; conditions: control 0.245
From the text: In a related study using lung tumor cells (A-549) breast tumor cells (MCF-7) and colon tumor cells (HT-29), thiabeadazole effectively killed these cells.

[8] = tested on: HIV-1 in ACH-2 cells (T cell line A3.01); assay: Additional chronic HIV studies, T cells; format: cell-based; conditions: 60 μg/ml
Method: (§1) Chronic HIV-1 infected cells U1 were derived from an acute HIV-1 infection of the promonocytic cell line, U937. The chronic HIV-1 infected cells, ACH-2 were derived from an acute HIV-1 infection of the T cell line, A3.01.
(§2) These cells were cultured in medium and the phorbol ester, PMA. PMA causes the cells (both U1 and ACH-2) to be activated and not divide but it also causes the U-1 cells to differentiate. […] Cell viability was measured when these cell lines were treated with the test compound.
(§3) Both cell lines constituitively produce a small amount of HIV-1. ACH-2 cell lines tend to produce more HIV-1 than U1 cells as shown by p24 ELISA. When either cell line is cultured in the presence of PMA there is an increase in the quantity of HIV-1 produced as measured by the p24 antigen ELISA.
(§4) In addition, the number of […] positive HIV mRNA expressing cells per microscopic field is measured. Comparisons can be made from these numbers since the same number of cells were adhered to the glass slides for each drug concentration 10×10^6 cells/ml).
(§5) These cells were treated with test samples. […] The positive control was interferon which suppressed HIV monocytes replication by 80%.

[9] = tested on: HIV, chronically infected cells; assay: Reappearance of virus production from chronically infected cells previously treated; format: cell-based
[10] = tested on: herpes; assay: In vivo herpes screening test; set-up: species or system mice
Method: The positive control was acyclovir at 75 mg/kg dose; 60% of the mice survived with a mean death date of 17.2 days.

[11] = tested on: P388; assay: P-388 model for leukemia, T/C; format: in vivo, mice; conditions: mouse, in vivo
From the text: In the P-388 model for leukemia there was a dose responsive effect and the results were good.
The NCI Measure of Success is T/C=125.

[12] = tested on: MX1 breast cancer tumors implanted subcutaneously; assay: Tumor growth reduction in mice models (Table 5), breast; format: in vivo; conditions: implanted subcutaneously under the mice skin
[13] = tested on: HIV; assay: microbe, parasite or virus in culture; format: cell-based; conditions: Human immunodeficiency virus 1; 60 μg/ml; read-out: inhibition of viral replication
[14] = tested on: influenza; assay: In vivo model for influenza; set-up: species or system mice
Method: The positive control was amantadine (75 mg/kg) with 100% of the mice surviving for 21 days. 2-(Methoxycarbonylamino)benzimidazole was not active in the same test.

[15] = tested on: A549 lung tumor cells; assay: MTT cell viability test, lung tumor cells; format: cell-based, human; conditions: A-549, control 0.600
[16] = tested on: HT29 colon tumor cells; assay: MTT cell viability test, colon tumor cells; format: cell-based, human; conditions: HT-29, control 0.398
[17] = tested on: herpes; assay: In vitro herpes model; format: cell-based
[18] = tested on: HIV-1 (CEM-SK1, U937-SK1, H9-SK1, U1 and ACH2 cells); assay: HIV Virus Replication Study in chronically infected cells; format: cell-based
Method: Thiabendazole was tested in chronically infected HIV virus. These cell populations contain integrated copies of the HIV genome and constituitively produce HIV at relatively high levels (CEM-SK1, U937-SK1 and H9-SK1 from Frederick Research Center, Maryland) or are latently infected and only produce virus after stimulation with phorbol esters, tumor necrosis factor or IL6 (U1 and ACH2).
Toxicity to the chronically infected cells was similar to that observed with the uninfected cells.
After 28 days of treatment on chronically infected cells, the toxicity of the compound to the target cells appeared similar in both uninfected and chronically infected cells.
This reduction of virus production occurs at concentrations which are nontoxic to the host cell and which have no effect on the synthesis of cellular DNA, RNA and protein.

[19] = tested on: Human Tumor Colony Forming Units; assay: In Vitro Human Tumor Colony Forming Units Test
[20] = tested on: HIV-1 in U1 cells (promonocytic, from U937); assay: Additional chronic HIV studies, monocytes; format: cell-based; conditions: 60 μg/ml
Method: as §1, §2, §3, §4, §5

[21] = tested on: B-16 mouse melanoma; conditions: mouse, in vivo
Method: The data in Tables 1, 2 and 3 are reported in T/C which is interpreted using the following scale:
long term survivors for P388 is >30 days, for B16 it is >60 days. The NCI Measure of Success is T/C=125.
This study was performed in black mice injected i.p. with B-16 mouse melanoma which many researchers believe is the most predictive model for efficacy in humans. […] Death is the end point in this model.

## Nc1ccn([C@@H]2O[C@H](CO)[C@@H](O)C2(F)F)c(=O)n1 [Gemcitabine, reference compound]
[1]
  tumor weight: 503.7 mg

## CC(=O)O[C@H]1C(=O)[C@@]2(C)[C@H]([C@H](OC(=O)c3ccccc3)[C@]3(O)C[C@H](OC(=O)[C@H](O)[C@@H](NC(=O)c4ccccc4)c4ccccc4)C(C)=C1C3(C)C)[C@]1(OC(C)=O)CO[C@@H]1C[C@@H]2O [Taxol]
[2]
  tumor weight: 0 mg
[3]
  % weight change (wt): +1%
  toxic deaths/number of test subjects (deaths): 0/10
  tumor growth suppression (tg supp.): 75%

## c1ccc2[nH]c(-c3cscn3)nc2c1 [thiabendazole, 2-(4-thiazolyl)-1-H-benzimidazole]
[4]
  virus production from pretreated cell populations, Groups 1-3: identical
[5]
  virus production: totally suppressed
[6]
  activity: no activity
[7]; 0.87 ppm
  Optical Density: 0.507
[7]; 3.46 ppm
  Optical Density: 0.466
[7]; 17.3 ppm
  Optical Density: 0.258
[7]; 35 ppm
  Optical Density: 0.025
[7]; 173 ppm
  Optical Density: 0.007
[8]
  increase of T-cell HIV replication: 26%
[9]; 40 μg/ml
  day by which virus production resumed after washing free of compound: ≤ 12 days
[9]; highest concentrations
  day at which virus production was observed after washing free of compound: ~70 days
[9]; lower concentrations (20 μg/ml and 4 μg/ml)
  time until virus production resumed after washing free of compound: ≤ 4 days
[10]; 100 mg/kg
  mean death date: 9.2
  mice survived: 50%
[10]; 200 mg/kg
  mean death date: 10.4
  mice survived: 10%
[11]
  activity against P388: no activity
[12]
  activity against MX1 breast cancer tumors: no activity
[13]
  inhibition at 60 µg/mL: 98%
[14]; 100 mg/kg
  mean death date: 8.7 days
  mice survived: 62%
[14]; 200 mg/kg
  mean death date: 8 days
  mice survived: 67%
[15]; 0.87 ppm
  Optical Density: 1.32
[15]; 3.46 ppm
  Optical Density: 1.12
[15]; 17.3 ppm
  Optical Density: 0.851
[15]; 35 ppm
  Optical Density: 0.411
[15]; 173 ppm
  Optical Density: 0.007
[16]; 0.87 ppm
  Optical Density: 0.852
[16]; 3.46 ppm
  Optical Density: 0.713
[16]; 17.3 ppm
  Optical Density: 0.204
[16]; 35 ppm
  Optical Density: 0.011
[16]; 173 ppm
  Optical Density: 0.005
[17]
  activity: no activity
[18]; after 28 days of treatment
  concentration at which stable reductions in virus production were observed: greater than 10 μg/ml
[18]; chronically infected cells
  concentrations that inhibited virus production: 1 to 10 µg/mL
[19]; 1 Hour Exposure, 0.5 μg/ml
  positive results / tumors tested: 0/3
[19]; 1 Hour Exposure, 5.0 μg/ml
  positive results / tumors tested: 0/3
[19]; 1 Hour Exposure, 50.0 μg/ml
  positive results / tumors tested: 0/3
[19]; Continuous Exposure, 0.5 μg/ml
  positive results / tumors tested: 1/10
[19]; Continuous Exposure, 5.0 μg/ml
  positive results / tumors tested: 2/10
[19]; Continuous Exposure, 50.0 μg/ml
  positive results / tumors tested: 7/10
[20]
  suppression of replication in the HIV monocytes: 74%
[21]
  activity against B16: no activity
